Earlier results, collected in patent publication US11999963B2, “Pseudomonas protegens and products thereof to control bacterial panicle blight of rice” (priority 2020, dated 2024).

Tested on: Pythium ultimum
Details: Howell & Stipanovic, 1980; Maurhofer et al., 1994

For `O=C(c1cc(Cl)c(Cl)[nH]1)c1c(O)cccc1O` [Pyoluteorin, pyoluteorin], the “activity against Pythium ultimum” value is given as “had activity”.
